The target of series [1] is T1, human glycogen phosphorylase a (Homo sapiens, UniProt P06737).
T1 sequence (P06737 1-847): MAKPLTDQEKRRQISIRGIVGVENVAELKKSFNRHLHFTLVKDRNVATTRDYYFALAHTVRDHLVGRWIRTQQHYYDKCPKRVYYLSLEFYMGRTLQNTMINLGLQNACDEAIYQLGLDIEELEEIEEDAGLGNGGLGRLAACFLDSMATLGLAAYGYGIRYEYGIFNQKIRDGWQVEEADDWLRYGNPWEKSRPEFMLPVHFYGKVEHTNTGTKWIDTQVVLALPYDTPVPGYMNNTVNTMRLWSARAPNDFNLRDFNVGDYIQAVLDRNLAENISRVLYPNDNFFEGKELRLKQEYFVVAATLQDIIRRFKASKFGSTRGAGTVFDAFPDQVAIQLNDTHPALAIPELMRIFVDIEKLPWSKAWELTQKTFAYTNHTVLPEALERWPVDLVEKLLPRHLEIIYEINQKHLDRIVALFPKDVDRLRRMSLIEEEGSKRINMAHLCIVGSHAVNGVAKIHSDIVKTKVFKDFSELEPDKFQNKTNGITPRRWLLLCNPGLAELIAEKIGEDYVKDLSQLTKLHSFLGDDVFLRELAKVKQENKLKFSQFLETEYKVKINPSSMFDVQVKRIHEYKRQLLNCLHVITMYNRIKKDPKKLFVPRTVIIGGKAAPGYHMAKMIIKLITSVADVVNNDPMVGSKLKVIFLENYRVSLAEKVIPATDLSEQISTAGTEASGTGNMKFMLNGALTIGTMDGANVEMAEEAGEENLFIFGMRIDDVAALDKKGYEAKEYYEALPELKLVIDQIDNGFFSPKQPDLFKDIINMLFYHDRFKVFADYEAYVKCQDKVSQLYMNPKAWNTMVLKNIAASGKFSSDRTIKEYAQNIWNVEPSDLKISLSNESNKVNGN
As to the kind of experiment: Glycogen phosphorylase a activity assay (reverse direction, liberation of inorganic phosphate). Format: biochemical. The following applies: 10 μM test substance; in vitro; incubated at room temperature for 40 minutes; absorption at 820 nm. The method, then:
Glycogen Phosphorylase a Activity Assay
The effect of compounds on the activity of the active form of glycogen phosphorylase (GPa) was measured in the reverse direction by following the synthesis of glycogen from glucose 1-phosphate by determining the liberation of inorganic phosphate. All the reactions were carried out as duplicate determinations in microtiter plates with 96 wells (Half Area Plates, Costar No 3696), measuring the change in absorption owing to the formation of the reaction product at the wavelength specified hereinafter in a Multiskan Ascent Elisa Reader (Lab Systems, Finland).
In order to measure the GPa enzymic activity in the reverse direction, the general method of Engers et al. (Engers H D, Shechosky S, Madsen N B, Can J Biochem 1970 July; 48(7):746-754) was used to measure the conversion of glucose 1-phosphate into glycogen and inorganic phosphate. […] The baseline glycogen phosphorylase a activity in the absence of test substance was determined by adding 10 μl of buffer solution T (0.1% DMSO). […] After incubation at 45° C. for 60 minutes, the absorption at 820 nm was measured. […]

Results on 1 molecule are retold here after US6506778B2, “Acylphenylurea derivatives, a process for their preparation and their use as pharmaceuticals” (Aventis Pharma Deutschland GmbH, priority 2000, dated 2003).

`O=C(O)CCCCCOc1c(Cl)cc(NC(=O)NC(=O)c2ccccc2Cl)cc1Cl` [Example 1, 6-{2,6-Dichloro-4-[(2-chlorobenzoyl)ureido]phenoxy}hexanoic Acid] came in with a melting point of 164 °C. In addition, in series [1], the inhibition at 10 µM worked out at 87%.
